From patent US20230027361A1, “METTL3 MODULATORS” (priority 2019, published 2023)
Like-named read-outs stand apart in the source and are kept apart here.

Assays:
METTL3/METTL14 = METTL3/METTL14 (Homo sapiens, UniProt Q86U44); assay: METTL3-14 Standard Enzyme Assay (METTL3 biochemical assay)
Method in brief: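 Tritium transfer from ³H-SAM (100 nM) to biotinylated RNA (100 nM) captured on streptavidin flashplates and counted by scintillation. Enzyme complex (2.5 nM) with compound, 5 min preincubation, 30 min reaction at ambient temperature, HEPES pH 7.5 buffer, stopped by excess unlabeled SAM.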

PRMT5-MEP50 = PRMT5-MEP50 (Homo sapiens, UniProt O14744); assay: PRMT5 Assay (PRMT5 biochemical assay)
Chain of PRMT5-MEP50 (O14744 whole entry): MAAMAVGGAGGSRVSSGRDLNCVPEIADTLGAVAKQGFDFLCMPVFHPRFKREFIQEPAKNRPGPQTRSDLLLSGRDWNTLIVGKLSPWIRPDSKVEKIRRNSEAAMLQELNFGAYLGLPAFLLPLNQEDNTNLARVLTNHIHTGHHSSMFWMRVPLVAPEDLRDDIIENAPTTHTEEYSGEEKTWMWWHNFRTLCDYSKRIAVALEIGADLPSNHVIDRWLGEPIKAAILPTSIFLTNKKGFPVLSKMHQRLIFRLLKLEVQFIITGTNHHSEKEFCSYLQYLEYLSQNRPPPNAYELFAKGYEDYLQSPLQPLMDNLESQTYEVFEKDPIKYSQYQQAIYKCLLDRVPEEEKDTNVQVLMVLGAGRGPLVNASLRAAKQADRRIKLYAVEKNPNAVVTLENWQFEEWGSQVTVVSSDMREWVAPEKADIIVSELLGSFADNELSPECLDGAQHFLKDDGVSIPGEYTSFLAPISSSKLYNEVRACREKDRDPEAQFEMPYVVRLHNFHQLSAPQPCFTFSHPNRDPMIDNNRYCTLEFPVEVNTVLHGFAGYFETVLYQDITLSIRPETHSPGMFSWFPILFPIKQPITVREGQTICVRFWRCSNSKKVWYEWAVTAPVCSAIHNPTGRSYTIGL
Chain of PRMT5-MEP50 (Q9BQA1 whole entry partner): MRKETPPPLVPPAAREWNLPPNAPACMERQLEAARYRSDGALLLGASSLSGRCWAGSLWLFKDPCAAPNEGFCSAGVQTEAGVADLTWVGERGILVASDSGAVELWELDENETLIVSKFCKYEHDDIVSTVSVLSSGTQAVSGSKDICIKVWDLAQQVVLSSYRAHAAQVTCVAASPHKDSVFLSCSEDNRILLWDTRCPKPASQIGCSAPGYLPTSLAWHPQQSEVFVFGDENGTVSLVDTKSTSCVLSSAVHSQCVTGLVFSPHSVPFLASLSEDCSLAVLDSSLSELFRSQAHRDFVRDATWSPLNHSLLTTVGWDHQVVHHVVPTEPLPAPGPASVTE
Method in brief: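 Radiometric methyltransferase read-out: after 60 min reaction, excess unlabelled SAM (15 μM) stops turnover and biotinylated H4 peptide (100 nM) carrying 3H-methyl from 250 nM 3H-SAM is captured on streptavidin flashplates (2 h, 25° C) for scintillation counting. Enzyme, 2.5 nM PRMT5-MEP50, was preincubated 5 min with compound in pH 8.0 Tris buffer with DTT and Tween.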

MOLM-13 cells [1] = assay: MOLM-13 96 Hour Cell Proliferation Assay; format: cell-based; conditions: Homo sapiens
Experimental: MOLM-13 (DSMZ) cells were seeded at 600 cells per well in a volume of 44 μL in a Greiner Bio-One CELLSTAR™ 384 Well Polystyrene Cell Culture clear bottom microplate in RPMI 1640 media containing 10% fetal bovine serum using a Multidrop Combi (ThermoFisher Scientific). Cells were incubated overnight at 37° C. in a humidified tissue culture incubator. To prevent evaporation or to reduce edge effect, add 50 μL or more H2O to an empty plate, cover, and place on top of the cell plates. The Mosquito® HTS Liquid Handler was used to make a compound/media intermediate plate by aliquoting 1 μL of compound from the initial compound dilution plate (concentrations ranging from 10.0 mM to 38.0 nM in 100% DMSO) into Bio-One 384-well polypropylene conical bottom microplate containing 49 μL of media containing the appropriate serum (50-fold dilution, 2% DMSO, compound concentrations ranging from 200.0 μM and […]). The Apricot liquid handling system was used to transfer 6.2 μL compounds from the intermediate plate into the seeding plate containing 44 μL cells (8-fold dilution spanning concentrations 25.0 μM to […], 0.25% DMSO final), and placed in a humidified tissue culture incubator at 37° C. After 96 hours, 25 μL of Cell Titer-Glo reagent (Promega) was added to each well using an Integra liquid handling system. The plate was protected from light using TopSeal-A (Black) film over the entire plate, added White Bottom seal film on the bottom of the entire plate for a better reading on the Envision, and placed on an IKA plate shaker for at 300 rpm for 10 minutes at room temperature. The plate was read on an EnVision plate reader (Perkin Elmer) using the Ultra Sensitive Luminescence protocol. Data analysis was performed by normalizing the raw luminescence units to an average of the positive control values for staurosporine (100% cell death) and the negative control values for DMSO (0% cell death). An IC50 was calculated using a 4-parameter logistic nonlinear regression model in GraphPad Prism.

METTL1/WDR4 = METTL1/WDR4 (Homo sapiens, UniProt Q9UBP6); assay: METTL1 Assay (METTL1 biochemical assay)
Chain of METTL1/WDR4 (Q9UBP6 whole entry, species assumed): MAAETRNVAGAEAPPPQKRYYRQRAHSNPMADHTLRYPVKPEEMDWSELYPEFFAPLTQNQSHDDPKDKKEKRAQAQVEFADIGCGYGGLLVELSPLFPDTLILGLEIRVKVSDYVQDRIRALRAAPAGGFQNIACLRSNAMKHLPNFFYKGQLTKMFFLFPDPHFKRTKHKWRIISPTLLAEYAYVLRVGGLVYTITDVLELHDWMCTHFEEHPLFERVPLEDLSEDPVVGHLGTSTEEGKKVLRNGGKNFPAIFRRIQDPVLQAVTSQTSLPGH
Chain of METTL1/WDR4 (P57081 whole entry partner, species assumed): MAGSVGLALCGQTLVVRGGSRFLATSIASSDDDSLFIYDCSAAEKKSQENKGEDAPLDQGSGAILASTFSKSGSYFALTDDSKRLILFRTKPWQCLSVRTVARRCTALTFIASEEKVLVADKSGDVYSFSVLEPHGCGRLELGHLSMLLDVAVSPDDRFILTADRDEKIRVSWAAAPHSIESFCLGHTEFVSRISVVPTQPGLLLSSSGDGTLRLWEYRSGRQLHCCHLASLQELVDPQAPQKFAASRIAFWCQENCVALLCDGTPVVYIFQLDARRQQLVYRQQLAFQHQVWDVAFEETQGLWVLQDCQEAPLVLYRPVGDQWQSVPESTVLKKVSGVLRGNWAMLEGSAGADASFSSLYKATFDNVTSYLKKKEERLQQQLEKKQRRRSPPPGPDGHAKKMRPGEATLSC
Experimental: Assays were performed in a 25 μl-volume in 384-well V-bottom polypropylene microplates (Greiner Bio-One, cat. No. 781280) at ambient temperature. Optimized 1× assay buffer was 20 mM HEPES pH 7.5, 50 mM KCl, 250 μM MgCl2, 1 mM DTT, 0.01% Tween, 0.01% BSG, 0.004 U/μl RNAseOUT (cat. No. 10777019, ThermoFisher Scientific, Waltham, Mass.). For compound screening METTL1/WDR4 (final concentration, f.c.=6.25 nM) was added using a Multidrop Combi (ThermoFisher Scientific, Waltham, Mass.) and preincubated for 5 min. Reactions were started by adding 3′ biotinylated RNA ([…]-biotin) (f.c.=25 nM) and 3H-SAM (f.c.=60 nM) substrates. Reactions proceeded for 20 minutes and were quenched with excess non-radioactive SAM (f.c.=15 μM). The reactions were then transferred to streptavidin-coated flashplates and incubated for 2 hours at 25° C. Following two washing cycles with 0.1% Tween-20, the plates were sealed and read on a TopCount (PerkinElmer, Waltham, Mass.) plate-based scintillation counter. For determination of kinetic parameters, reaction times were optimized so that measurements were taken during the initial velocity phase of the reaction.

MOLM-13 cells [2] = assay: MOLM-13 48 Hour Cell Proliferation Assay; format: cell-based; conditions: Homo sapiens
Experimental: MOLM-13 (DSMZ) cells were seeded at 1000 cells per well in a volume of 44 μL in a Falcon 384-well tissue culture treated clear bottom microplate in RPMI 1640 media containing 10% fetal bovine serum using a Multidrop Combi (ThermoFisher Scientific). Cells were incubated overnight at 37° C. in a humidified tissue culture incubator. The Mosquito® HTS Liquid Handler was used to make a compound/media intermediate plate by aliquoting 1 μL of compound from the initial compound dilution plate (concentrations ranging from 10.0 mM to 38.0 nM in 100% DMSO) into a V bottom 384-well screen matrix plate containing 49 μL of media containing the appropriate serum (50-fold dilution, 2% DMSO). The Apricot liquid handling system was used to transfer 6.2 μL compounds from the intermediate plate into the Falcon 384-well tissue culture plate containing 44 μL cells (10-point, 4-fold dilution spanning concentrations 25.0 μM to […], 0.25% DMSO final), and placed in a humidified tissue culture incubator at 37° C. After 48 hours, 25 μL of Cell Titer-Glo reagent (Promega) was added to each well using a Multidrop Combi. The plate was protected from light and placed on an IKA plate shaker for at 300 rpm for 10 minutes at room temperature. The plate was read on an EnVision plate reader (Perkin Elmer) using the Ultra Sensitive Luminescence protocol. Data analysis was performed by normalizing the raw luminescence units to an average of the positive control values for staurosporine (100% cell death) and the negative control values for DMSO (0% cell death). An IC50 was calculated using a 4-parameter logistic nonlinear regression model in GraphPad Prism.

[3] = METTL3 biochemical assay, read-out: METTL3 IC50
[4] = PRMT5 biochemical assay, read-out: PRMT5 IC50
[5] = read-out: METTL1 IC50, METTL1 biochemical assay
[6] = METTL1 biochemical assay, read-out: METTL1 IC50
[7] = read-out: METTL3 IC50, METTL3 biochemical assay
[8] = read-out: PRMT5 IC50, PRMT5 biochemical assay

Chain of METTL3/METTL14 (Q86U44 whole entry, species assumed): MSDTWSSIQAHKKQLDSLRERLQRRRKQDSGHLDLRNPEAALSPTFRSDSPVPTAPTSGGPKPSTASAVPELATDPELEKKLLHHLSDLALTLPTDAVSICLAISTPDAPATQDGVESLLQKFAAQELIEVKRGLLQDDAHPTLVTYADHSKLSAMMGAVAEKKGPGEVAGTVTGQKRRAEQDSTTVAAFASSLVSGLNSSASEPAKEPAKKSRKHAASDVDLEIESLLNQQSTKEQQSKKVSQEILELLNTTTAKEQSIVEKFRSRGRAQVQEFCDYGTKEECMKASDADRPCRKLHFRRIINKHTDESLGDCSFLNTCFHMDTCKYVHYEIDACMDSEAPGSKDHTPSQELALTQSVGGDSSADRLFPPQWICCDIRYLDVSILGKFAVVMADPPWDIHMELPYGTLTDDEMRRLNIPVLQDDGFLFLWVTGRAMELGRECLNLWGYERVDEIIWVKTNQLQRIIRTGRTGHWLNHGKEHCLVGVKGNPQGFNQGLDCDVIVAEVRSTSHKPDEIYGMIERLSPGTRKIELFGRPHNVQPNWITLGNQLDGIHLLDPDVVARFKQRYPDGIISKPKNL
Chain of METTL3/METTL14 (Q9HCE5 whole entry partner, species assumed): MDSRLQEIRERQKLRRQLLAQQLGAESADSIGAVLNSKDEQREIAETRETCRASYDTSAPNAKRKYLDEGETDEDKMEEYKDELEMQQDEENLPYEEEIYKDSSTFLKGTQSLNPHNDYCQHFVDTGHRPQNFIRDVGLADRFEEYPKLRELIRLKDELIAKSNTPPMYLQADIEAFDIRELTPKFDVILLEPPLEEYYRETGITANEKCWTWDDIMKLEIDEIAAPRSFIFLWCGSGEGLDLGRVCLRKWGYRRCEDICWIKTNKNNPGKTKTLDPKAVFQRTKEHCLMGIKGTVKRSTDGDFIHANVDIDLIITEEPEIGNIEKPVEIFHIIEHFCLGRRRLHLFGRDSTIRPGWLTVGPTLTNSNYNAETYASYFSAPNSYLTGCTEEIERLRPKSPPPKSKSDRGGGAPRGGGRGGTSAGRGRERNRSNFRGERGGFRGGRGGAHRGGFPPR

| SMILES | IC50 (MOLM-13 cells [1]) [nM] | IC50 (METTL3/METTL14; [3]) [nM] | IC50 (PRMT5-MEP50; [4]) [nM] | IC50 (METTL1/WDR4; [5]) [nM] | other results |
| --- | --- | --- | --- | --- | --- |
| Cn1ccc(-c2cn([C@@H]3O[C@H](COc4ccc5cnc(N6CCC6)nc5c4)[C@@H](O)[C@@H]3F)c3ncnc(N)c23)n1 [I-199] | 1000 to 10000 |  |  |  | IC50 (METTL3/METTL14): < 10 nM; IC50 (PRMT5-MEP50): > 1000 nM |
| COCCN(C)C(=O)c1cn([C@@H]2O[C@H](COc3ccc4ccc(N5CCC5)nc4c3)[C@@H](O)[C@@H]2F)c2ncnc(N)c12 [I-217] | > 10000 |  |  |  | IC50 (METTL3/METTL14): 10 to 100 nM; IC50 (PRMT5-MEP50): > 1000 nM |
| Cn1ccc(-c2cn([C@@H]3C[C@H](CCc4ccc5ccc(N6CCC6)nc5c4)[C@@H](O)[C@@H]3F)c3ncnc(N)c23)n1 [I-211] | < 1000 |  |  |  | IC50 (METTL3/METTL14): < 10 nM; IC50 (PRMT5-MEP50): > 1000 nM |
| C=CCc1cn([C@@H]2O[C@H](COc3ccc4ccc(NC)nc4c3)[C@@H](O)[C@H]2O)c2ncnc(N)c12 [I-226] |  | < 10 | < 10 |  | IC50 (METTL1/WDR4): > 1000 nM; IC50 (MOLM-13 cells [2]): < 1 µM |
| Nc1ccc2cc(CC[C@H]3C[C@@H](n4ccc5c(N)ncnc54)[C@H](O)[C@@H]3O)ccc2n1 [I-125] |  | 100 to 1000 | < 10 | > 1000 | IC50 (MOLM-13 cells [1]; MOLM-13, 96 h): 1000 to 10000 nM |
| CNc1ccc2ccc(OC[C@H]3O[C@@H](n4cc(-c5ccn(C6CCC6)n5)c5c(N)ncnc54)[C@@H](F)[C@@H]3O)cc2n1 [I-143] |  | < 10 | 100 to 1000 |  | IC50 (METTL1/WDR4; [6]): > 1000 nM; IC50 (MOLM-13 cells [2]): 1 to 10 µM |
| CNc1ccc2ccc(OC[C@H]3O[C@@H](n4cc(-c5ccn(C(C)C)n5)c5c(N)ncnc54)[C@@H](F)[C@@H]3O)cc2n1 [I-2] | < 1000 |  |  |  | IC50 (METTL3/METTL14; [7]): < 10 nM; IC50 (PRMT5-MEP50; [8]): 100 to 1000 nM |
| CNc1ccc2ccc(OC[C@H]3O[C@H](n4cc(C(O)C5CC5)c5c(N)ncnc54)[C@H](O)[C@@H]3O)cc2n1 (stereo partly shown) [I-227] |  | < 10 | < 10 |  | IC50 (METTL1/WDR4): > 1000 nM; IC50 (MOLM-13 cells [2]): > 10 µM |
| CCn1ccc(-c2cn([C@@H]3O[C@H](COc4ccc5ccc(NC)nc5c4)[C@@H](O)[C@@H]3F)c3ncnc(N)c23)n1 [I-3] | < 1000 |  |  |  | IC50 (METTL3/METTL14; [7]): < 10 nM; IC50 (PRMT5-MEP50; [8]): 10 to 100 nM |
| CNc1ccc2ccc(OC[C@H]3O[C@@H](n4cc(CC5CC5)c5c(N)ncnc54)[C@H](O)[C@@H]3O)cc2n1 [I-142] |  | < 10 | 10 to 100 | > 1000 | IC50 (MOLM-13 cells [2]): 1 to 10 µM |
| CNc1ccc2cc(CC[C@H]3C[C@@H](n4ccc5c(N)ncnc54)[C@H](O)[C@@H]3O)ccc2n1 [I-111] |  | 100 to 1000 | < 10 | > 1000 | IC50 (MOLM-13 cells [1]; MOLM-13, 96 h): 1000 to 10000 nM |
| Nc1ncnc2c1ccn2[C@@H]1C[C@H](CCc2ccc3nccnc3c2)[C@@H](O)[C@H]1O [I-130] |  |  | < 10 | > 1000 | IC50 (MOLM-13 cells [1]; MOLM-13, 96 h): < 1000 nM |
| CCNc1ccc2ccc(OC[C@H]3O[C@@H](n4cc(-c5ccn(C)n5)c5c(N)ncnc54)[C@@H](F)[C@@H]3O)cc2n1 [I-7] |  |  |  |  | IC50 (METTL3/METTL14; [7]): < 10 nM; IC50 (METTL1/WDR4; [6]): > 1000 nM; IC50 (PRMT5-MEP50; [8]): 10 to 100 nM; IC50 (MOLM-13 cells [1]; MOLM-13, 96 h): < 1000 nM |
| CNc1ccc2sc(CC[C@H]3O[C@@H](n4cc(-c5ccn(C)n5)c5c(N)ncnc54)[C@@H](F)[C@@H]3O)cc2n1 [I-190] | < 1000 |  |  |  | IC50 (METTL3/METTL14): < 10 nM; IC50 (PRMT5-MEP50): 10 to 100 nM |
| Nc1ncnc2c1ccn2[C@@H]1C[C@H](CCc2ccc3cc(C#Cc4ccccc4)cnc3c2)[C@@H](O)[C@H]1O [I-112] |  | > 1000 | 10 to 100 | > 1000 |  |
| Nc1ncnc2c1ccn2[C@@H]1C[C@H](CCc2ccc3ccc(NCCO)nc3c2)[C@@H](O)[C@H]1O [I-105] |  | 100 to 1000 | < 10 | > 1000 |  |
| Nc1ncnc2c1ccn2[C@@H]1C[C@H](CCc2cccnc2)[C@@H](O)[C@H]1O [I-117] |  | > 1000 | 10 to 100 | > 1000 |  |
| Cc1nc(N)c2ccn([C@@H]3C[C@H](CCc4ccc5ccc(N)nc5c4)[C@@H](O)[C@H]3O)c2n1 [I-119] |  | > 1000 | < 10 | > 1000 |  |
| Nc1ncnc2c1c(-c1ncco1)cn2[C@@H]1O[C@H](COc2ccc3ccc(N4CCC4)nc3c2)[C@@H](O)[C@@H]1F [I-219] | < 1000 |  |  |  | IC50 (METTL3/METTL14): < 10 nM; IC50 (PRMT5-MEP50): > 1000 nM |
| NC(=O)Nc1cccc(CC[C@H]2C[C@@H](n3ccc4c(N)ncnc43)[C@H](O)[C@@H]2O)c1 [I-95] |  | > 1000 | 100 to 1000 | > 1000 |  |
| CN(C[C@H]1C[C@@H](n2ccc3c(N)ncnc32)[C@H](O)[C@@H]1O)c1ccc2ccc(N)nc2c1 [I-94] |  | > 1000 | < 10 | > 1000 |  |
| Nc1ncnc2c1ccn2[C@@H]1C[C@H](CCc2ccc3cncnc3c2)[C@@H](O)[C@H]1O [I-127] |  | > 1000 | < 10 | > 1000 |  |
| Nc1ncnc2c1ccn2[C@@H]1C[C@H](CCc2ccc3c(OCc4ccccc4)ccnc3c2)[C@@H](O)[C@H]1O [I-86] |  | > 1000 | < 10 | > 1000 |  |
